Columns and labels:
[1] = test system: S. thermophilus CS1980 cells; experiment: Lactose hydrolysis by permeabilized S. thermophilus CS1980 cells; type: cell-based, Streptococcus thermophilus; conditions: for effectiveness in cell permeabilization: 100 mg/L agent, 100 mg/l S. thermophilus cells, POM buffer
Description: S. thermophilus strains were grown in 500-ml Erlenmeyer flasks containing 200 mL of medium at 37° C. for 16 h without agitation. 2 mL of an overnight culture was used as inoculum. Cells were collected by centrifugation at 10,000×g for 10 min at 4° C., washed once with sterile POM buffer (50 mM K2HPO4/KH2PO4, 1 mM MgCl2, pH 7.4) and finally re-suspended in POM buffer to an optical density (OD600) of 0.3, corresponding to approximately 0.1 g/L (dry weight basis). For permeabilization, cell suspensions were dispensed into sterile tubes (1 mL per tube) and centrifuged in a microcentrifuge at 10,000×g for 5 min at 4° C. After decanting the supernatants, cell pellets were resuspended in 1 mL POM buffer containing different concentrations (10 mg/l and 100 mg/l) of monolaurin (Toronto Research Chemicals, Toronto, Canada), and were maintained for 10 min at 28° C. Non permeabilized cells in POM buffer were used as control. 100 mg/l of monomyristin was also tested as premeabilization agent. The cells were resuspended in POM buffered lactose (50 g/L) solution. The hydrolysis was carried out at 50° C. for 2 h. The concentration of lactose, glucose and galactose was determined on an Ultimate 3000 high-performance liquid chromatography (HPLC) system (Dionex) equipped with an Aminex HPX-87H column (Bio-Rad) and a Shodex RI-101 detector (Showa Denko K.K.). The column oven temperature was set to 60° C., and the mobile phase consisted of 5 mM H2SO4. The flow rate used was 0.5 mL/min.

[2] = test system: S. thermophilus CS1980; experiment: Lactose hydrolysis: monolaurin- versus ethanol-permeabilized cells; type: cell-based, Streptococcus thermophilus; conditions: for stability of the whole-cell catalyst: 100 μg/ml monolaurin or 45% (v/v) ethanol, 10 min at 28° C.
Description: S. thermophilus CS1980 was permeabilized for 10 minutes at 28° C. using (i) 100 μg/ml monolaurin in POM buffer or (ii) 45% (v/v) ethanol for 10 minutes, or (iii) not permeabilized (control). Hydrolysis of lactose in POM buffer (50 g/l lactose) at 50° C. was carried out at a cell concentration of approximately 100 mg/l.

[3] = test system: S. thermophilus CS1980; experiment: Permeabilization of S. thermophilus CS1980 at different temperatures; type: cell-based, Streptococcus thermophilus; conditions: permeabilization temperatures 20-50° C.
Description: […] Controls are prepared without addition of monolaurin in the permeabilization step. Hydrolysis of lactose by monolaurin-treated cells is carried out in a POM buffered solution.

[4] = test system: Lactococcus lactis biovar. diacetylactis RD1M5 cells; experiment: Acetoin production from pyruvate by permeabilized RD1M5 cells; type: cell-based; conditions: 100 mg/L monolaurin, 20 min at 30° C.; 700 mg/L cells, 100 mM pyruvate, 1 h
Description: Lactococcus lactis biovar. diacetylactis RD1M5 was permeabilized as described in example 1.2, using 100 mg/L monolaurin for 20 min at 30° C. 700 mg/L cells were suspended in POM buffer solution with 100 mM pyruvate. After 1 h, the cells were removed and the supernatant was used to quantify the acetoin concentration. Quantification of lactose, lactate, acetoin, and citrate were carried out using an Ultimate high-performance liquid chromatography system equipped with a Aminex HPX-87H column (300×7.8 mm column) (Bio-Rad, Hercules, USA) and a Shodex RI-101 refractive index detector (Showa Denko K.K., Tokyo, Japan). The mobile phase was 5 mM H2SO4 with a flow rate of 0.5 mL/min and the column oven temperature was maintained at 60° C.

Row | Compound | effectiveness in cell permeabilization [1] | stability of the whole-cell catalyst [2] | efficiency of permeabilization over temperature range [3] | lactose hydrolyzed by permeabilized cells ([1]; cells permeabilized 10 min at 28° C., 50 g/L lactose, 2 hours at 50° C., 100 mg/L cells (dry weight)) | hydrolysis by cells treated with too low monolaurin concentration ([1]; too low monolaurin concentration (10 mg/l tested), 50 g/L lactose, 50° C.) | lactose conversion by permeabilized cells ([2]; permeabilized 10 min at 28° C., 100 μg/ml monolaurin, 50 g/l lactose, 50° C., about 100 mg/l cells) | acetoin produced from pyruvate compared to non-treated cells [4]
1 | CCCCCCCCCCCCCC(=O)OCC(O)CO (stereo not drawn) [Monomyristin, monomyristin] | same effectiveness in cell permeabilization as monolaurin | – | – | – | – | – | –
2 | CCO [ethanol, reference compound] | – | compromised the stability of the whole-cell catalyst | – | – | – | – | –
3 | CCCCCCCCCCCC(=O)OCC(O)CO (stereo not drawn) [monolaurin] | efficiently permeabilizes the cells | higher stability | equally efficient | 55% | neglectable | perform better than the control as well as the ethanol-permeabilized cells | much higher concentrations of acetoin

Source: patent publication US20230157308A1, “PERMEABILIZED MICROBIAL CELL CATALYSTS” (DANMARKS TEKNISKE UNIVERSITET, priority 2020, published 2023)
